Non-standard residues stand in square brackets, D forms with d. Residues, ends and D or L forms follow the SMILES beside them. Aib = CC(C)(N)C(=O)O
Assay: Solubility of peptides and HBS helices
Type: physicochemical
Experimental: Design of Ras/Sos inhibitors was performed starting with the wild-type Sos929-944 α-H sequence. Additional modifications were introduced in order to improve the solubility of the HBS peptides. Charged residues were introduced at positions not involved in Ras binding. Computational alanine scanning was performed on two separate crystal structures (PDB codes: 1NVW and 1BKD) of the Ras/Sos complex to determine other important binding residues in the α-H helix that may be incorporated in the peptide mimetics. Additionally, non-essential β-branched residues (including threonine) in the wild-type α-H sequence were replaced with suitable residues to afford peptides with higher helical content (Table 1), as it was hypothesized that such modifications would improve α-helicity.

Row | Molecule | Solubility
1 | CC[C@H](C)[C@H](NC(=O)[C@H](C)N1CC=CCCC(=O)N[C@@H](Cc2ccccc2)C(=O)N[C@@H](CCC(=O)O)C1=O)C(=O)N[C@@H](Cc1ccc(O)cc1)C(=O)N[C@@H](CCCNC(=N)N)C(=O)N[C@@H](CC(C)C)C(=O)N[C@@H](CCC(=O)O)C(=O)N[C@H]1CCCCNC(=O)CC[C@@H](C(=O)N[C@@H](CCC(=O)O)C(=O)N[C@@H](C)C(=O)N[C@@H](CC(N)=O)C(N)=O)NC(=O)[C@H](C)NC(=O)[C@H](CCCCN)NC(=O)[C@H](CC(C)C)NC1=O [HBS 15] | soluble
2 | Ac-FEGIYRLELLKAEEAN-NH2 (N-terminus assumed) [Peptide 7] | soluble
3 | CC[C@H](C)[C@H](NC(=O)CN1CC=CCCC(=O)N[C@@H](Cc2ccccc2)C(=O)N[C@@H](CCC(=O)O)C1=O)C(=O)N[C@@H](Cc1ccc(O)cc1)C(=O)N[C@@H](CCCNC(=N)N)C(=O)N[C@H](C(=O)N[C@@H](CC(=O)O)C(=O)N[C@H](C(=O)N[C@@H](CC(C)C)C(=O)N[C@@H](CCCNC(=N)N)C(=O)N[C@H](C(=O)N[C@@H](CCC(=O)O)C(=O)N[C@@H](CCC(=O)O)C(=O)NCC(=O)N[C@@H](CC(N)=O)C(N)=O)[C@@H](C)O)[C@@H](C)CC)[C@@H](C)O [HBS 1] | partially
4 | CC[C@H](C)[C@H](NC(=O)CN1CC=CCCC(=O)N[C@@H](Cc2ccccc2)C(=O)N[C@@H](CCC(=O)O)C1=O)C(=O)N[C@@H](Cc1ccc(O)cc1)C(=O)N[C@@H](CCCNC(=N)N)C(=O)N[C@@H](CC(C)C)C(=O)N[C@@H](CCC(=O)O)C(=O)N[C@@H](CCCCN)C(=O)N[C@@H](CC(C)C)C(=O)N[C@@H](CCCCN)C(=O)N[C@@H](C)C(=O)N[C@@H](CCC(=O)O)C(=O)N[C@@H](CCC(=O)O)C(=O)N[C@@H](C)C(=O)N[C@@H](CC(N)=O)C(=O)N[C@@H](CCCNC(=N)N)C(=O)N[C@@H](CCCNC(=N)N)C(N)=O [HBS 16] | soluble
5 | CC[C@H](C)[C@H](NC(=O)CNC(=O)[C@H](CCC(=O)O)NC(=O)[C@H](Cc1ccccc1)NC(C)=O)C(=O)N[C@@H](Cc1ccc(O)cc1)C(=O)N[C@@H](CCCNC(=N)N)C(=O)N[C@@H](CC(C)C)C(=O)N[C@@H](CCC(=O)O)C(=O)N[C@@H](CC(C)C)C(=O)N[C@@H](CC(C)C)C(=O)N[C@@H](CCCCN)C(=O)NC(C)(C)C(=O)N[C@@H](CCC(=O)O)C(=O)N[C@@H](CCC(=O)O)C(=O)NC(C)(C)C(=O)N[C@@H](CC(N)=O)C(N)=O [Peptide 11] (Ac-FEGIYRLELLK[Aib]EE[Aib]N-NH2; N-terminus assumed) | soluble
6 | CC[C@H](C)[C@H](NC(=O)CN1CC=CCCC(=O)N[C@@H](Cc2ccccc2)C(=O)N[C@@H](CCC(=O)O)C1=O)C(=O)N[C@@H](Cc1ccc(O)cc1)C(=O)N[C@@H](CCCNC(=N)N)C(=O)N[C@@H](CC(C)C)C(=O)N[C@@H](CCC(=O)O)C(=O)N[C@@H](CC(C)C)C(=O)N[C@@H](CC(C)C)C(=O)N[C@@H](CCCCN)C(N)=O [HBS 8] | soluble
7 | CC[C@H](C)[C@H](NC(=O)CN1CC=CCCC(=O)N[C@@H](Cc2ccccc2)C(=O)N[C@@H](CCC(=O)O)C1=O)C(=O)N[C@@H](Cc1ccc(O)cc1)C(=O)N[C@@H](CCCNC(=N)N)C(=O)N[C@H](C(=O)N[C@@H](CCC(=O)O)C(=O)N[C@@H](CC(C)C)C(=O)N[C@@H](CC(C)C)C(=O)N[C@@H](CCCCN)C(=O)N[C@@H](C)C(=O)N[C@@H](CCC(=O)O)C(=O)N[C@@H](CCC(=O)O)C(=O)N[C@@H](C)C(=O)N[C@@H](CC(N)=O)C(N)=O)[C@@H](C)O [HBS 6] | soluble
8 | CC(=O)N[C@@H](Cc1ccccc1)C(=O)N[C@@H](CCC(=O)O)C(=O)NCC(=O)N[C@@H](CC(C)C)C(=O)N[C@@H](CC(C)C)C(=O)N[C@@H](CCCNC(=N)N)C(=O)N[C@@H](CC(C)C)C(=O)N[C@@H](Cc1c[nH]c2ccccc12)C(=O)N[C@@H](CC(C)C)C(=O)N[C@@H](CCCNC(=N)N)C(=O)N[C@@H](CCCCN)C(=O)NC(C)(C)C(=O)N[C@@H](CCC(=O)O)C(=O)N[C@@H](CCC(=O)O)C(=O)NC(C)(C)C(=O)N[C@@H](CC(N)=O)C(N)=O [Peptide 10] (Ac-FEGLLRLWLRK[Aib]EE[Aib]N-NH2; N-terminus assumed) | soluble
9 | CC[C@H](C)[C@H](NC(=O)CN1CC=CCCC(=O)N[C@@H](Cc2ccccc2)C(=O)N[C@@H](CCC(=O)O)C1=O)C(=O)N[C@@H](Cc1ccc(O)cc1)C(=O)N[C@@H](CCCNC(=N)N)C(=O)N[C@@H](CC(C)C)C(=O)N[C@@H](CCC(=O)O)C(=O)N[C@@H](CC(C)C)C(=O)N[C@@H](CC(C)C)C(=O)N[C@@H](CCCCN)C(=O)NC(C)(C)C(=O)N[C@@H](CCC(=O)O)C(=O)N[C@@H](CCC(=O)O)C(=O)NC(C)(C)C(=O)N[C@@H](CC(N)=O)C(N)=O [HBS 11] | soluble
10 | Ac-FEGLLRLWLRKAEEAN-NH2 (N-terminus assumed) [Peptide 12] | soluble
11 | Ac-FEAIYRLEKLKAEEAN-NH2 (N-terminus assumed) [Peptide 15] | soluble
12 | Ac-FEAIYRLELLKAEEAN-NH2 (N-terminus assumed) [Peptide 13] | soluble
13 | Ac-AEGIYRADILRTEEGN-NH2 (N-terminus assumed) [Peptide 4] | partially
14 | Ac-FEGIYRTELLKAEEAN-NH2 (N-terminus assumed) [Peptide 6] | soluble
15 | CC(C)C[C@H](NC(=O)CN1CC=CCCC(=O)N[C@@H](Cc2ccccc2)C(=O)N[C@@H](CCC(=O)O)C1=O)C(=O)N[C@@H](CC(C)C)C(=O)N[C@@H](CCCNC(=N)N)C(=O)N[C@@H](CC(C)C)C(=O)N[C@@H](Cc1c[nH]c2ccccc12)C(=O)N[C@@H](CC(C)C)C(=O)N[C@@H](CCCNC(=N)N)C(=O)N[C@@H](CCCCN)C(=O)N[C@@H](C)C(=O)N[C@@H](CCC(=O)O)C(=O)N[C@@H](CCC(=O)O)C(=O)N[C@@H](C)C(=O)N[C@@H](CC(N)=O)C(N)=O [HBS 12] | soluble
16 | Ac-FEGIYRTDILR-NH2 (N-terminus assumed) [Peptide 5] | soluble
17 | Ac-FGEGIYRTDILRTEEGN-NH2 (N-terminus assumed) [Peptide 2] | partially
18 | CC(C)C[C@H](NC(=O)CN1CC=CCCC(=O)N[C@@H](Cc2ccccc2)C(=O)N[C@@H](CCC(=O)O)C1=O)C(=O)N[C@@H](CC(C)C)C(=O)N[C@@H](CCCNC(=N)N)C(=O)N[C@@H](CC(C)C)C(=O)N[C@@H](Cc1c[nH]c2ccccc12)C(=O)N[C@@H](CC(C)C)C(=O)N[C@@H](CCCNC(=N)N)C(=O)N[C@@H](CCCCN)C(=O)NC(C)(C)C(=O)N[C@@H](CCC(=O)O)C(=O)N[C@@H](CCC(=O)O)C(=O)N[C@@H](C)C(=O)N[C@@H](CC(N)=O)C(N)=O [HBS 9] | soluble
19 | CC[C@H](C)[C@H](NC(=O)CN1CC=CCCC(=O)N[C@@H](C)C(=O)N[C@@H](CCC(=O)O)C1=O)C(=O)N[C@@H](Cc1ccc(O)cc1)C(=O)N[C@@H](CCCNC(=N)N)C(=O)N[C@@H](CC(C)C)C(=O)N[C@@H](CCC(=O)O)C(=O)N[C@@H](CC(C)C)C(=O)N[C@@H](CC(C)C)C(=O)N[C@@H](CCCCN)C(=O)N[C@@H](C)C(=O)N[C@@H](CCC(=O)O)C(=O)N[C@@H](C)C(=O)N[C@@H](C)C(=O)N[C@@H](C)C(N)=O [HBS 7^mut] | soluble
20 | Ac-AEGIYRTDILRTEEGN-NH2 (N-terminus assumed) [Peptide 3] | partially
21 | CC(C)C[C@H](NC(=O)CN1CC=CCCC(=O)N[C@@H](Cc2ccccc2)C(=O)N[C@@H](CCC(=O)O)C1=O)C(=O)N[C@@H](CC(C)C)C(=O)N[C@@H](CCCNC(=N)N)C(=O)N[C@@H](CC(C)C)C(=O)N[C@@H](Cc1c[nH]c2ccccc12)C(=O)N[C@@H](CC(C)C)C(=O)N[C@@H](CCCNC(=N)N)C(=O)N[C@@H](CCCCN)C(=O)NC(C)(C)C(=O)N[C@@H](CCC(=O)O)C(=O)N[C@@H](CCC(=O)O)C(=O)NC(C)(C)C(=O)N[C@@H](CC(N)=O)C(N)=O [HBS 10] | soluble
22 | CC[C@H](C)[C@H](NC(=O)[C@H](C)N1CC=CCCC(=O)N[C@@H](Cc2ccccc2)C(=O)N[C@@H](CCC(=O)O)C1=O)C(=O)N[C@@H](Cc1ccc(O)cc1)C(=O)N[C@@H](CCCNC(=N)N)C(=O)N[C@@H](CC(C)C)C(=O)N[C@@H](CCC(=O)O)C(=O)N[C@@H](CC(C)C)C(=O)N[C@@H](CC(C)C)C(=O)N[C@@H](CCCCN)C(=O)N[C@@H](C)C(=O)N[C@@H](CCC(=O)O)C(=O)N[C@@H](CCC(=O)O)C(=O)N[C@@H](C)C(=O)N[C@@H](CC(N)=O)C(N)=O [HBS 13] | soluble
23 | CC[C@H](C)[C@H](NC(=O)CNC(=O)[C@H](Cc1ccccc1)NC(=O)[C@H](Cc1ccccc1)NC(C)=O)C(=O)N[C@@H](Cc1ccc(O)cc1)C(=O)N[C@@H](CC(C)C)C(=O)N[C@H](C(=O)N[C@@H](CC(N)=O)C(=O)N[C@H](C(=O)N[C@@H](CC(C)C)C(=O)N[C@@H](CCCCN)C(=O)N[C@H](C(=O)N[C@@H](CCC(=O)O)C(=O)N[C@@H](CCC(=O)O)C(=O)NCC(=O)N[C@@H](CC(N)=O)C(N)=O)[C@@H](C)O)[C@@H](C)CC)[C@@H](C)O [wt (Sos929-944), reference compound] | insoluble
24 | CC[C@H](C)[C@H](NC(=O)CN1CC=CCCC(=O)N[C@@H](Cc2ccccc2)C(=O)N[C@@H](CCC(=O)O)C1=O)C(=O)N[C@@H](Cc1ccc(O)cc1)C(=O)N[C@@H](CCCNC(=N)N)C(=O)N[C@@H](CC(C)C)C(=O)N[C@@H](CCC(=O)O)C(=O)N[C@@H](CC(C)C)C(=O)N[C@@H](CC(C)C)C(=O)N[C@@H](CCCCN)C(=O)N[C@@H](C)C(=O)N[C@@H](CCC(=O)O)C(=O)N[C@@H](CCC(=O)O)C(=O)N[C@@H](C)C(=O)N[C@@H](CC(N)=O)C(N)=O [HBS 7] | soluble
25 | Ac-FEGIYRLELLK-NH2 (N-terminus assumed) [Peptide 8] | soluble
26 | Ac-FEGIYRTDILRTEEGN-NH2 (N-terminus assumed) [Peptide 1] | partially
